Data published in PMC10443802, “Targeting a xenobiotic transporter to ameliorate vincristine-induced sensory neuropathy” (JCI Insight, 2023).
Values joined by “and” are separate entries in the source; they are usually repeats but may differ in a detail not shown here. Equal entries are not always repeated. Each block holds one compound with its values, some of them ahead of it.

Columns and labels:
[1] = target: T1, hOATP1B3 (Homo sapiens, UniProt Q9NPD5); assay: Inhibition of vincristine uptake in HEK293 cells overexpressing hOATP1B3; conditions: inhibitor 15 min pre-treatment
T1 sequence (Q9NPD5 1-702): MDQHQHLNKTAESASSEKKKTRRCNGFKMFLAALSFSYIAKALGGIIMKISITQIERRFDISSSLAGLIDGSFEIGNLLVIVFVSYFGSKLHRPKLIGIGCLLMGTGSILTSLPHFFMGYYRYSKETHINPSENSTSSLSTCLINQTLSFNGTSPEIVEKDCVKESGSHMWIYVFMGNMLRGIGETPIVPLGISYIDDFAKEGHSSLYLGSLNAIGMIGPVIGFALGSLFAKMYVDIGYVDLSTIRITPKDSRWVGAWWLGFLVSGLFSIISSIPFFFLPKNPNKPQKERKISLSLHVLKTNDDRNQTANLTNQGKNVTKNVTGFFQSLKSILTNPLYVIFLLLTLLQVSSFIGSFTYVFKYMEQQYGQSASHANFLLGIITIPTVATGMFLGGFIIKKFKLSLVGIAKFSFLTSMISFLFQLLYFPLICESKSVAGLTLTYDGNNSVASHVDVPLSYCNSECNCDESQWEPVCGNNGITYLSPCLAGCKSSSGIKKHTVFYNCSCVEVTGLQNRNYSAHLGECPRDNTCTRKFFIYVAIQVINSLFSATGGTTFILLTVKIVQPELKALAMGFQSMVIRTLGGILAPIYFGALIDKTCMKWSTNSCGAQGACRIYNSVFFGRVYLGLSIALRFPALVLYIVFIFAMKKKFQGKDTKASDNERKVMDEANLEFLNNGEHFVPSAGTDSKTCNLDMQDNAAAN

[2] = target: T1, hOATP1B3; assay: Inhibition of EβG uptake in HEK293 cells overexpressing hOATP1B3; conditions: HEK293 hOATP1B3; inhibitor 10 μM, 15-min pre-incubation
[3] = Nilotinib levels in liver and DRG of mice; assay type: in vivo, mouse; conditions: OATP1B2(-/-) mice; for concentration at […]: DBA/1LacJ, mouse, liver, oral, Liver nilotinib
Procedure: Pharmacokinetic studies. Pharmacokinetic studies were performed following an established protocol
0.5% hydroxypropyl-methylcellulose in water) was administered at a dose of 10 mg/kg . Serial whole blood
points, from the retro-orbital sinus vein for the subsequent two time-points, and cardiac puncture at the terminal time-point. Blood samples were centrifuged at 11,000 rpm for 5 min, and the plasma supernatants collected and stored at -80°C until analysis by a validated method based on reversed -phase liquid chromatography coupled to tandem mass-spectrometric detection (LC-MS/MS).
mg/kg or 100 mg/kg, and after 1.5 h, plasma, liver, and whole DRG were collected. All plasma and tissue specimens were stored at -80°C until further processing.
injection at a dose of 1 mg/kg. Whole blood samples were collected 0.08, 0.25, 0.5, 1, and 4 h, and livers were collected at the final time point.
Finally, the beads were removed, and the homogenized samples were stored at -80°C until analysis by LC-MS/MS.
Pharmacokinetic parameters were calculated by non -compartmental analysis using Phoenix WinNonlin version 8.0 (Certara). Peak plasma concentration (C max) was determined by visual inspection of the data from the concentration-time curves. The linear trapezoidal rule was used to obtain the area under the plasma concentration-time curve (AUC), and drug levels in tissues were corrected for
Determination of drug levels.
Quantiva triple quadrupole mass spectrometer from Thermo Fisher Scientific was used for LC-MS/MS
An Accucore aQ column (150 × 2.1 mm, dp = 2.6 μm, Thermo Fisher Scientific) was protected
volume was 5.0 μL. The temperature of the autosampler rack was 4°C, and the temperature of the
column was maintained at 50°C. Mobile phase A consisted of water with 0.1% (v/v) formic acid and
mobile phase B consisted of acetonitrile: methanol (1:1) with 0.1% (v/v) formic acid.
assay setting with the positive voltage applied to the ESI capillary was set at 4000 V, and the capillary

[4] = system: P388D1; conditions: vincristine 1 μM, 30 min, nilotinib 10 μM
Excerpt: (A) Gene expression of the OATP1B2 gene in L1210 and P388D1 murine leukemia cells
normalized to total protein levels. All data presented represent the mean (bars) ± SEM (error bars).

[5] = target: hOCTN1 (Homo sapiens, UniProt Q9H015); assay: Vincristine uptake screen, HeLa cells overexpressing hOCTN1; assay type: in vitro ADME
Procedure: Relative uptake is expressed as percentage change compared with empty vector controls (n = 4–14 per group). […] Human OATP1B1 and OATP1B3 transporter–overexpressed cells were used as positive controls; empty vector controls were used as the negative control. […] Mechanical allodynia (C), thermal hyperalgesia (D), and sciatic nerve maximal action potential amplitudes (E) are expressed as percentage change relative to baseline values (n = 6–8 per group). Statistical analysis was performed using a 2-way ANOVA with Bonferroni’s post hoc test. **P < 0.01, ***P < 0.001, ****P < 0.0001, compared with baseline values. […] Data are shown as mean ± SEM. […]
transfected with transporters of interest, including hOAT1, hOAT3, hOAT4, hOATP1A2, hOATP3A1, hOATP4A1, hOATP5A1, hOATP1C1, hOATP1B1, hOATP1B3, hOATP2B1, hOCT1, hOCT2, hOCTN1, hOCTN2, hASBT, hNTCP, hNPT1, hMATE1, hOSTα/β, hPEPT1, hPEPT2, rOatp1a1, rOatp1a4, rOatp1a5, rOatp1b2, rNtcp, rAsbt, rOat1, and rOct1. Cells were transfected with expression plasmid or vector control lacking any insert using Lipofectin reagent (Invitrogen). Sixteen hours thereafter, cells were washed with transport media (OPTIMEM, Invitrogen) and treated with radiolabeled drug. […] The cellular radioactivity was quantified by liquid scintillation counting as described above. […]

[6] = system: MOLT4; assay: Cytotoxicity of vincristine with or without nilotinib, MTT assay, MOLT4; assay type: cell-based, human; conditions: vincristine alone, individual replicates
[7] = target: hMATE1 (Homo sapiens, UniProt Q96FL8); assay: Substrate uptake in HEK293 cells overexpressing hMATE1; conditions: HEK293 human MATE1
hMATE1, sequence (Q96FL8 whole entry): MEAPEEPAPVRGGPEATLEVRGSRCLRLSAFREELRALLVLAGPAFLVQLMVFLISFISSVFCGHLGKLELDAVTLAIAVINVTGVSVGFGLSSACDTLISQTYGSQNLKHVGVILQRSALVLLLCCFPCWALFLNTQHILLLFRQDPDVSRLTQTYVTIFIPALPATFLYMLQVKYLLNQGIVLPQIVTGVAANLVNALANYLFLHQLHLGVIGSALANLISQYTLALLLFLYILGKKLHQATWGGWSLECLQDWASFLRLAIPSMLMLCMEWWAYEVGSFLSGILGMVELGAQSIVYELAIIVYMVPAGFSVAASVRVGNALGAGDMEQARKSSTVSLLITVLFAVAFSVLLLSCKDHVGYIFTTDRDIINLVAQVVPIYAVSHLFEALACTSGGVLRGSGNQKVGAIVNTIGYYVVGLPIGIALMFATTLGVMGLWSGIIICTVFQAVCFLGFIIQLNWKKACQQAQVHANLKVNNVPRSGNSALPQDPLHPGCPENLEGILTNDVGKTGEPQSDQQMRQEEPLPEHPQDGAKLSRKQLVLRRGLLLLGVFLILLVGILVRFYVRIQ
Procedure: on OATP1B1, OATP1B3, or OATP1B2 function was evaluated using EβG (Axxora LLC) as the
transfected with transporters of interest, including hOAT1, hOAT3, hOAT4, hOATP1A2, hOATP3A1, hOATP4A1, hOATP5A1, hOATP1C1, hOATP1B1, hOATP1B3, hOATP2B1, hOCT1, hOCT2, hOCTN1, hOCTN2, hASBT, hNTCP, hNPT1, hMATE1, hOSTα/β, hPEPT1, hPEPT2, rOatp1a1, rOatp1a4, rOatp1a5, rOatp1b2, rNtcp, rAsbt, rOat1, and rOct1. Cells were transfected with expression plasmid or vector control lacking any insert using Lipofectin reagent (Invitrogen). Sixteen hours thereafter, cells were washed with transport media (OPTIMEM, Invitrogen) and treated with radiolabeled drug. At various time intervals, cells were washed three times with ice-cold PBS and then lysed with 1% sodium dodecyl sulfate. The cellular radioactivity was quantified by liquid scintillation counting as described above. Similar analyses were performed in HEK293 cells transfected with hOATP1A2, hOATP1C1, mMATE1, and hMATE1, with cells seeded in poly lysine pre-coated 12-well plates. For hOATP1A2 and hOATP1C1, transient transfections were performed with either an empty vector, OATP1A2, or OATP1C1 using Lipofectamine 2000 according to the manufacturers protocol (Invitrogen).

hOCTN1, sequence (Q9H015 whole entry): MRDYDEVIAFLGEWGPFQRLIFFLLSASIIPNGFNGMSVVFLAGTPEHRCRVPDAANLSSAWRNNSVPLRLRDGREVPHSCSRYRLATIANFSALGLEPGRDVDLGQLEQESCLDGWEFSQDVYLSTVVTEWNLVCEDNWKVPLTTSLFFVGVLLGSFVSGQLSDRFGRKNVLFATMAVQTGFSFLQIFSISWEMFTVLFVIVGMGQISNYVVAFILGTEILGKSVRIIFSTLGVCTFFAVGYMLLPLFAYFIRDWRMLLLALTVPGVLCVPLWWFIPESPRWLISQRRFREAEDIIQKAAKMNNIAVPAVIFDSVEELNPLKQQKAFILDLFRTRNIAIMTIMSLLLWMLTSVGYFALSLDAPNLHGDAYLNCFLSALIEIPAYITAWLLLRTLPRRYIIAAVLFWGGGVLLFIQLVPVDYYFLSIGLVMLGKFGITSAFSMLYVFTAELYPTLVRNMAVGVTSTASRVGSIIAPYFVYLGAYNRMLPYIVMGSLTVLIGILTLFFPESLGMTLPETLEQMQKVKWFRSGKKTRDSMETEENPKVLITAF

concentration at […] ([3]; 25 mg/kg): 11900 ng/g
concentration at […] ([3]; 100 mg/kg): 33700 ng/g
Compound: Cc1cn(-c2cc(NC(=O)c3ccc(C)c(Nc4nccc(-c5cccnc5)n4)c3)cc(C(F)(F)F)c2)cn1 [Nilotinib, nilotinib]
Vincristine uptake (% of vehicle) [1]: 56.9618 % of vehicle and 79.3107 % of vehicle and 46.7964 % of vehicle and 63.7354 % of vehicle and 65.1694 % of vehicle and 69.9849 % of vehicle
EβG uptake (% of vehicle) [2]: 3.038 % of vehicle and 2.924 % of vehicle and 2.718 % of vehicle
Liver nilotinib ([3]; 25mg/kg): 14.24 ng/mg tissue and 15.56 ng/mg tissue
Liver nilotinib ([3]; 100mg/kg): 30.37 ng/mg tissue and 41.94 ng/mg tissue
Influence on uptake of vincristine [4]: did not influence the uptake of vincristine

Compound: CC[C@]1(O)C[C@H]2CN(CCc3c([nH]c4ccccc34)[C@@](C(=O)OC)(c3cc4c(cc3OC)N(C=O)[C@H]3[C@@](O)(C(=O)OC)[C@H](OC(C)=O)[C@]5(CC)C=CCN6CC[C@]43[C@@H]65)C2)C1 [Vincristine, vincristine]
Vincristine uptake (% of vector control) [5]: 169.00 % of vector control and 132.00 % of vector control and 109.00 % of vector control and 131.00 % of vector control and 135.00 % of vector control and 167.00 % of vector control and 158.00 % of vector control
IC50 ([6]; Homo sapiens, MOLT-4, MOLT4 cells): 6.88 nM
IC50 ([6]; MOLT4 cells): 6.2 nM and 9.07 nM and 9.04 nM and 7.56 nM and 10.2 nM and 7.73 nM and 7.86 nM and 6.95 nM
Contribution of transporter to cellular uptake of vincristine [7]: do not appreciably contribute to the cellular uptake of vincristine
